Values after ≈ are worked out from the molar mass of the structure shown. Active and inactive are the calls of the source. The calls are words filed in the database; no cut-off is given here.

T1 sequence (P36544 whole entry): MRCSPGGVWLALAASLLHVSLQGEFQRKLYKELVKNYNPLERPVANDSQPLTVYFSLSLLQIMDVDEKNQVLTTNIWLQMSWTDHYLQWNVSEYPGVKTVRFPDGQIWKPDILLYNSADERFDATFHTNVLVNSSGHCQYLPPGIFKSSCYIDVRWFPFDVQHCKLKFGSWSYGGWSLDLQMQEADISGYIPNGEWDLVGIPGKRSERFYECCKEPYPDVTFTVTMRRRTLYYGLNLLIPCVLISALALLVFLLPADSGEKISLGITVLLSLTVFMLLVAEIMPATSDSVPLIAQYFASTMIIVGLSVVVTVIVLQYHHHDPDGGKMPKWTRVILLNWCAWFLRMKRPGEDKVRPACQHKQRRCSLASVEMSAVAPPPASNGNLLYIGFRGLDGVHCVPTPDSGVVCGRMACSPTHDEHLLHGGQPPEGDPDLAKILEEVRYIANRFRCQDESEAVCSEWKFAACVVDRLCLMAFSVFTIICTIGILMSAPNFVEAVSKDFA

System in one series: not listed separately
Put plainly: Mutagenicity in Salmonella typhimurium TA100 in presence of rat liver S9 fraction by AMES test. To be noted: salmonella enterica subsp. enterica serovar typhimurium. In kind it is toxicity, subcellular.
On to `Cc1ccc(CN2CCN(C(=O)C(=O)Nc3cc(F)c4[nH]ccc4c3)CC2)cc1`, for which the Activity entry is on record as “Toxic”.

The test system of another series is Mus musculus. Nature of the series: Cognitive enhancing effect in scopolamine-induced amnesia NMRI mouse model assessed as increase in recognition index at 1 to 10 mg/kg, ip administered 30 mins prior to scopolamine injection by Y-maze test. Conditions: dose 1-10 mg/kg. It is filed as functional, organism-based.
Take `Cc1ccc(OC2CCN(C(=O)C(=O)Nc3ccc4c(ccn4C)c3)CC2)cc1`: the outcome was Active.
In the case of `Cc1ccc(Oc2ccc(C(=O)C(=O)Nc3ccc4c(ccn4C)c3)cn2)cc1`, the outcome was Active.

System in a further series: not listed separately
Put plainly: Kinetic solubility of compound. It is filed as physicochemical. Conditions: read-out: Kinetic_solubility.
For the compound `Cn1ccc2cc(NC(=O)C(=O)c3cnn(Cc4ccc(Cl)cc4)c3)ccc21`, the solubility kinetic turned out to be 3 µM (≈ 1.18 µg/mL).
For the compound `Cc1ccc(Oc2ccc(C(=O)C(=O)Nc3ccc4c(ccn4C)c3)cn2)cc1`, the solubility kinetic amounted to 3 µM (≈ 1.16 µg/mL).
Consider `Cc1ccc(CN2CCN(C(=O)C(=O)Nc3cc(F)c4[nH]ccc4c3)CC2)cc1`, for which the solubility kinetic amounted to 42.7 µM (≈ 16.8 µg/mL).

Another series addresses T1, Neuronal acetylcholine receptor subunit alpha-7 (Homo sapiens, UniProt P36544). Put plainly: Positive allosteric modulator activity at human alpha7 nAChR expressed in Flp-In-HEK293 cells co-expressing RIC-3 assessed as potentiation of PNU282987-induced calcium influx measured after 10 mins by FLIPR assay. Conditions: read-out: EC50. It is filed as cell-based, Flp-In-293.
Usually EC50 stands for the concentration that produces a half-maximal response. Take `Cc1ccc(OC2CCN(C(=O)C(=O)Nc3ccc4c(ccn4C)c3)CC2)cc1`: the concentration for a half-maximal effect (EC50) is 120 nM.
Regarding `Cc1ccc(Oc2ccc(C(=O)C(=O)Nc3ccc4c(ccn4C)c3)cn2)cc1`, the EC50 amounted to 130 nM.
In the case of `Cc1ccc(CN2CCN(C(=O)C(=O)Nc3cc(F)c4[nH]ccc4c3)CC2)cc1`, the EC50 was 110 nM.

System in a further series: not listed separately
Put plainly: Metabolic stability in human liver microsomes assessed as intrinsic clearance at 1 uM measured per mg protein upto 40 mins. In kind it is ADME, Microsome. To be noted: read-out: CLH.
In the case of `Cc1ccc(Oc2ccc(C(=O)C(=O)Nc3ccc4c(ccn4C)c3)cn2)cc1`, the microsomal CLint at 1 µM came out at 51 µL/min/mg.
Turning to `Cc1ccc(CN2CCN(C(=O)C(=O)Nc3cc(F)c4[nH]ccc4c3)CC2)cc1`, the microsomal CLint at 1 µM came to 17 µL/min/mg.

System in the next series: not listed separately
Nature of the series: Metabolic stability in Wistar rat liver microsomes assessed as intrinsic clearance at 1 uM measured per mg protein upto 40 mins. It is filed as ADME, Microsome. Conditions: read-out: CLH. (Liver microsomes are vesicles of endoplasmic reticulum, rich in cytochrome P450 enzymes.)
With `Cc1ccc(Oc2ccc(C(=O)C(=O)Nc3ccc4c(ccn4C)c3)cn2)cc1`, the microsomal CLint at 1 µM came to 59 µL/min/mg.
`Cc1ccc(CN2CCN(C(=O)C(=O)Nc3cc(F)c4[nH]ccc4c3)CC2)cc1`: the microsomal CLint at 1 µM turned out to be 130 µL/min/mg.

System in the next series: not listed separately
Nature of the series: Metabolic stability in NMRI mouse liver microsomes assessed as intrinsic clearance at 1 uM measured per mg protein upto 40 mins. In kind it is ADME, Microsome. To be noted: read-out: CLH.
As for `Cc1ccc(Oc2ccc(C(=O)C(=O)Nc3ccc4c(ccn4C)c3)cn2)cc1`, the microsomal CLint at 1 µM worked out at 33 µL/min/mg.
Same read-out and setting: under `Cc1ccc(CN2CCN(C(=O)C(=O)Nc3cc(F)c4[nH]ccc4c3)CC2)cc1` stands 151 µL/min/mg.

System in another series: not listed separately
Nature of the series: Drug uptake in NMRI mouse brain at 1 mg/kg, ip measured after 1 hr by HPLC-MS/MS analysis. In kind it is ADME, organism-based. To be noted: read-out: Ct.
As for `Cc1ccc(OC2CCN(C(=O)C(=O)Nc3ccc4c(ccn4C)c3)CC2)cc1`, the concentration at 1 h was 120 nM.
`Cc1ccc(Oc2ccc(C(=O)C(=O)Nc3ccc4c(ccn4C)c3)cn2)cc1`: the concentration at 1 h was 108 nM.

System in another series: not listed separately
Nature of the series: Drug uptake in NMRI mouse brain at 3 mg/kg, ip measured after 1 hr by HPLC-MS/MS analysis. In kind it is ADME, organism-based. To be noted: read-out: Ct.
Consider `Cc1ccc(OC2CCN(C(=O)C(=O)Nc3ccc4c(ccn4C)c3)CC2)cc1`, for which the concentration at 1 h was determined as 297 nM.
Regarding `Cc1ccc(Oc2ccc(C(=O)C(=O)Nc3ccc4c(ccn4C)c3)cn2)cc1`, the concentration at 1 h came to 492 nM.

System in a further series: not listed separately
Put plainly: Drug uptake in NMRI mouse brain at 10 mg/kg, ip measured after 1 hr by HPLC-MS/MS analysis. Conditions: read-out: Ct. It is filed as ADME, organism-based.
On to `Cc1ccc(OC2CCN(C(=O)C(=O)Nc3ccc4c(ccn4C)c3)CC2)cc1`, for which the concentration at 1 h worked out at 1290 nM.
Consider `Cc1ccc(Oc2ccc(C(=O)C(=O)Nc3ccc4c(ccn4C)c3)cn2)cc1`, for which the concentration at 1 h was 1930 nM.

System in the next series: not listed separately
Nature of the series: Plasma concentration in NMRI mouse at 1 mg/kg, ip measured after 1 hr by HPLC-MS/MS analysis.
Settings: not given
In kind it is ADME, organism-based.
Take `Cc1ccc(OC2CCN(C(=O)C(=O)Nc3ccc4c(ccn4C)c3)CC2)cc1`: the concentration at 1 h is 63 nM.
`Cc1ccc(Oc2ccc(C(=O)C(=O)Nc3ccc4c(ccn4C)c3)cn2)cc1` came in with a concentration at 1 h of 104 nM.

System in the next series: not listed separately
Put plainly: Plasma concentration in NMRI mouse at 3 mg/kg, ip measured after 1 hr by HPLC-MS/MS analysis. In kind it is ADME, organism-based.
Settings: not given
Turning to `Cc1ccc(OC2CCN(C(=O)C(=O)Nc3ccc4c(ccn4C)c3)CC2)cc1`, the concentration at 1 h is 170 nM.
Still for that read-out and setting: under `Cc1ccc(Oc2ccc(C(=O)C(=O)Nc3ccc4c(ccn4C)c3)cn2)cc1` stands 417 nM.

System in another series: not listed separately
Nature of the series: Plasma concentration in NMRI mouse at 10 mg/kg, ip measured after 1 hr by HPLC-MS/MS analysis.
Settings: not given
In kind it is ADME, organism-based.
Regarding `Cc1ccc(OC2CCN(C(=O)C(=O)Nc3ccc4c(ccn4C)c3)CC2)cc1`, the concentration at 1 h was 653 nM.
Turning to `Cc1ccc(Oc2ccc(C(=O)C(=O)Nc3ccc4c(ccn4C)c3)cn2)cc1`, the concentration at 1 h is 1260 nM.

System in a further series: not listed separately
Put plainly: Ratio of drug level in NMRI mouse brain to plasma at 1 mg/kg, ip measured after 1 hr by HPLC-MS/MS analysis. To be noted: read-out: BPR. It is filed as ADME, organism-based.
`Cc1ccc(OC2CCN(C(=O)C(=O)Nc3ccc4c(ccn4C)c3)CC2)cc1`: the Kp at 1 h was found to be 1.95.
Still for that read-out and setting: under `Cc1ccc(Oc2ccc(C(=O)C(=O)Nc3ccc4c(ccn4C)c3)cn2)cc1` stands 1.05.

System in another series: not listed separately
Nature of the series: Ratio of drug level in NMRI mouse brain to plasma at 3 mg/kg, ip measured after 1 hr by HPLC-MS/MS analysis. Conditions: read-out: BPR. It is filed as ADME, organism-based.
For the compound `Cc1ccc(OC2CCN(C(=O)C(=O)Nc3ccc4c(ccn4C)c3)CC2)cc1`, the Kp at 1 h came out at 1.74.
For the compound `Cc1ccc(Oc2ccc(C(=O)C(=O)Nc3ccc4c(ccn4C)c3)cn2)cc1`, the Kp at 1 h was 1.17.

System in a further series: not listed separately
Put plainly: Ratio of drug level in NMRI mouse brain to plasma at 10 mg/kg, ip measured after 1 hr by HPLC-MS/MS analysis. It is filed as ADME, organism-based. To be noted: read-out: BPR.
On to `Cc1ccc(OC2CCN(C(=O)C(=O)Nc3ccc4c(ccn4C)c3)CC2)cc1`, for which the Kp at 1 h is 1.96.
Consider `Cc1ccc(Oc2ccc(C(=O)C(=O)Nc3ccc4c(ccn4C)c3)cn2)cc1`, for which the Kp at 1 h was determined as 1.53.

System in the next series: not listed separately
Nature of the series: Mutagenicity in Salmonella typhimurium TA1535 in presence of rat liver S9 fraction by AMES test. Conditions: salmonella enterica subsp. enterica serovar typhimurium. It is filed as toxicity, subcellular.
Turning to `Cc1ccc(CN2CCN(C(=O)C(=O)Nc3cc(F)c4[nH]ccc4c3)CC2)cc1`, the Activity entry is “Toxic”.

System in another series: not listed separately
Put plainly: Mutagenicity in Salmonella typhimurium TA98 in presence of rat liver S9 fraction by AMES test. In kind it is toxicity, subcellular. Conditions: salmonella enterica subsp. enterica serovar typhimurium.
`Cc1ccc(CN2CCN(C(=O)C(=O)Nc3cc(F)c4[nH]ccc4c3)CC2)cc1`: the Activity result is listed as “Toxic”.

System in a further series: not listed separately
Nature of the series: Mutagenicity in Salmonella typhimurium TA98 in absence of rat liver S9 fraction by AMES test. In kind it is toxicity. Conditions: salmonella enterica subsp. enterica serovar typhimurium.
Take `Cc1ccc(CN2CCN(C(=O)C(=O)Nc3cc(F)c4[nH]ccc4c3)CC2)cc1`: the Activity entry was “Toxic”.

System in another series: not listed separately
Put plainly: Mutagenicity in Salmonella typhimurium TA100 in absence of rat liver S9 fraction by AMES test. In kind it is toxicity. To be noted: salmonella enterica subsp. enterica serovar typhimurium.
Regarding `Cc1ccc(CN2CCN(C(=O)C(=O)Nc3cc(F)c4[nH]ccc4c3)CC2)cc1`, the Activity result is listed as “Toxic”.

System in another series: not listed separately
Nature of the series: Mutagenicity in Salmonella typhimurium TA1537 in presence of rat liver S9 fraction by AMES test. In kind it is toxicity, subcellular. To be noted: salmonella enterica subsp. enterica serovar typhimurium.
As for `Cc1ccc(CN2CCN(C(=O)C(=O)Nc3cc(F)c4[nH]ccc4c3)CC2)cc1`, the Activity entry is “Toxic”.

System in a further series: not listed separately
Put plainly: Mutagenicity in Salmonella typhimurium TA1537 in absence of rat liver S9 fraction by AMES test. In kind it is toxicity. Conditions: salmonella enterica subsp. enterica serovar typhimurium.
Regarding `Cc1ccc(CN2CCN(C(=O)C(=O)Nc3cc(F)c4[nH]ccc4c3)CC2)cc1`, the Activity result is recorded as “Toxic”.

System in another series: not listed separately
Put plainly: Mutagenicity in Escherichia coli WP2 uvrA in presence of rat liver S9 fraction by AMES test. It is filed as toxicity, subcellular.
Settings: not given
As for `Cc1ccc(CN2CCN(C(=O)C(=O)Nc3cc(F)c4[nH]ccc4c3)CC2)cc1`, the Activity result was “Toxic”.

System in another series: not listed separately
Put plainly: Mutagenicity in Escherichia coli WP2 uvrA in absence of rat liver S9 fraction by AMES test. In kind it is toxicity.
Settings: not given
Turning to `Cc1ccc(CN2CCN(C(=O)C(=O)Nc3cc(F)c4[nH]ccc4c3)CC2)cc1`, the Activity result is reported as “Toxic”.

In the next series the target is T1, Neuronal acetylcholine receptor subunit alpha-7. Put plainly: Positive allosteric modulator activity at human alpha7 nAChR expressed in Flp-In-HEK293 cells co-expressing RIC-3 assessed as potentiation of PNU282987-induced calcium influx at 10 uM measured after 10 mins by FLIPR assay. In kind it is cell-based. Conditions: Flp-In-293, filed as positive allosteric modulator.
Take `Cn1ccc2cc(NC(=O)C(=O)c3cnn(Cc4ccc(Cl)cc4)c3)ccc21`: the Activity is 52%.

System in the next series: not listed separately
Put plainly: Mutagenicity in Salmonella typhimurium TA1535 in absence of rat liver S9 fraction by AMES test. It is filed as toxicity. To be noted: salmonella enterica subsp. enterica serovar typhimurium.
Regarding `Cc1ccc(CN2CCN(C(=O)C(=O)Nc3cc(F)c4[nH]ccc4c3)CC2)cc1`, the Activity entry is reported as “Toxic”.

These data come from ChEMBL document CHEMBL4825686, “HTS-based discovery and optimization of novel positive allosteric modulators of the α7 nicotinic acetylcholine receptor” (Eur J Med Chem, 2021).
